Source: ChEMBL document CHEMBL4619815, “Hitting a Moving Target: Simulation and Crystallography Study of ATAD2 Bromodomain Blockers” (ACS Med Chem Lett, 2020)

Tests used:
[1] = target: T1, ATPase family AAA domain-containing protein 2 (Homo sapiens, UniProt Q6PL18); test: Inhibition of recombinant human N-terminal GST-tagged ATAD2 bromodomain (981 to 1146 residues) expressed in Escherichia coli using biotinylated peptide SGRGK(Ac)GGKGLGKGGAKRHRKVLRDNGSGS as substrate incubated for 3 hrs by TR-FRET assay
T1 sequence (Q6PL18 whole entry): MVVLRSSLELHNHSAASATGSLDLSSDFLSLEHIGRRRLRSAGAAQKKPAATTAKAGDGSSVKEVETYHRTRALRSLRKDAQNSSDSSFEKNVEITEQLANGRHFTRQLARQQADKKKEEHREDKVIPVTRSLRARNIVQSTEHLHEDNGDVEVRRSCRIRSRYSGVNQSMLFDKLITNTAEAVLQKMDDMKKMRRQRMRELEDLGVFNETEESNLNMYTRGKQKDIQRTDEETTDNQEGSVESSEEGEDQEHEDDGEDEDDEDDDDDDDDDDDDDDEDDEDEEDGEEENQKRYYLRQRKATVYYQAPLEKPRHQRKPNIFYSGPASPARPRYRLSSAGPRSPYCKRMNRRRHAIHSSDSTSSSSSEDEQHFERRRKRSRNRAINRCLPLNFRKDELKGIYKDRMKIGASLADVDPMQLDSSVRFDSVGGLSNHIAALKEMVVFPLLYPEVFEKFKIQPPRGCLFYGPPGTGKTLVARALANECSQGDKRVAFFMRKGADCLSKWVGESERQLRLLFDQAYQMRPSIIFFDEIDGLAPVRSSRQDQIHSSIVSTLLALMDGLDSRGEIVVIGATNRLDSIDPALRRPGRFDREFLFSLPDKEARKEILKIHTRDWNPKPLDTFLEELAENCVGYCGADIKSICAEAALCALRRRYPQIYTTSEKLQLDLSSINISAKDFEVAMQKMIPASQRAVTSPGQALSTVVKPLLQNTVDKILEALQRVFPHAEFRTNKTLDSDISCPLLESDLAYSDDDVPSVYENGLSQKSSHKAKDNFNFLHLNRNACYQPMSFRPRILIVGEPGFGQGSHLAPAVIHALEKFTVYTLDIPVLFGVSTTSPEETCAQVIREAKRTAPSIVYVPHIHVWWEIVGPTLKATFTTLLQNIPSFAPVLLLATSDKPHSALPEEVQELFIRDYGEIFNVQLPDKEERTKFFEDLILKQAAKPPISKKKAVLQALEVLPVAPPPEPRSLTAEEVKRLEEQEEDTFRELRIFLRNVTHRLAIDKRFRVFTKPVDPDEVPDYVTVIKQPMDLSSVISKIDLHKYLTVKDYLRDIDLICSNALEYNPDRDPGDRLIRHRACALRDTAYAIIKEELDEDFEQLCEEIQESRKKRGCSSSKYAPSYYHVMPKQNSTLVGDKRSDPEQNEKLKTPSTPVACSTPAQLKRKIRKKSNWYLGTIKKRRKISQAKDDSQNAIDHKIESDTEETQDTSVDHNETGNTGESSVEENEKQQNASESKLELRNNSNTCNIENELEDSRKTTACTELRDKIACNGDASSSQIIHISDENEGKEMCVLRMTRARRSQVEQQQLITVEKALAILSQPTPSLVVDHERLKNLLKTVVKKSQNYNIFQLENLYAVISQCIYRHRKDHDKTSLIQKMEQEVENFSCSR

[2] = target: T1, ATPase family AAA domain-containing protein 2; test: Binding affinity to recombinant human N-terminal GST-tagged ATAD2 bromodomain (981 to 1146 residues) expressed in Escherichia coli at 10 degree C by isothermal titration calorimetry

Compound	IC50 [1] [µM]	Kd [2] [µM]
CC(=O)c1nc(NC(=O)[C@@H](C)N)sc1-c1cccnc1	95	–
CC(=O)c1nc(NC(=O)C(C)(C)N)sc1-c1cncc(N)c1	> 150	–
CC(=O)c1csc(NC(=O)[C@H]2CNCCN2)n1	> 150	–
CC(=O)c1nc(NC(=O)C2(N)CCC2)sc1-c1cncc(N)c1	80	–
CC(=O)c1nc(NC(=O)[C@@H](C)NC(=N)N)sc1-c1cncc(N)c1	> 150	–
CC(=O)c1nc(NC(=O)[C@@H](C)N)sc1-c1cccc(O)c1	> 150	–
CC(=O)c1nc(NC(=O)[C@H]2CNCCN2)sc1-c1cncc(N)c1	> 150	–
CC(=O)c1nc(NC(=O)[C@H]2CNCCN2)sc1-c1ccc(C(=O)N2CCOCC2)cc1	> 150	–

More lines, now with the values ahead:

IC50 [1] [µM]	Kd [2] [µM]	Compound
> 150	–	CC(=O)c1nc(NC(=O)[C@@H](C)N)sc1-c1cccc(N)c1
140	–	CC(=O)c1csc(NC(=O)[C@@H](C)NC(=N)N)n1
> 150	–	CC(=O)c1csc(NC(=O)C(C)(C)N)n1
> 150	–	CC(=O)c1nc(NC(=O)[C@@H](C)N)sc1-c1cncc(N)c1
> 150	–	C[C@@H](N)C(=O)Nc1nc2c(s1)CCCC2=O
> 150	–	CC(=O)c1nc(NC(=O)[C@H]2CNCCN2CCC2CCC(F)(F)CC2)sc1-c1cncc(N)c1
336	–	CC(=O)c1csc(NC(=O)[C@@H](C)N)n1
> 150	–	CC(=O)c1nc(NC(=O)[C@H]2CNCCN2)sc1-c1ccc(N2CCCC2=O)cc1
> 150	–	COc1cccc(-c2sc(NC(=O)[C@@H](C)N)nc2C(C)=O)c1
15	25	CC(=O)c1csc(NC(=O)[C@H]2CNCCN2CCC2CCC(F)(F)CC2)n1
